For test [1], the target named is Stub1 (UniProt Q9UNE7). Description: co-immunoprecipitation. Particulars: reference: CDK4 wild type; sites T172.
The target in test [2] is Trim28 (UniProt Q13263). As to the kind of experiment: co-immunoprecipitation. Particulars: reference: CDK4 wild type; sites T172.
The target in test [3] is UBE3A (UniProt Q05086). Description: co-immunoprecipitation. Particulars: reference: CDK4 wild type; sites T172.
The test system of test [4] is U2OS. Description: cells. Also on record: tumour cell growth suppression, dose response, 24 h. Particulars: Homo sapiens, 24 h. The method, then:
(§1) On the basis of a previous publication, a potential CDKL3 inhibitor candidate caught our attention. […] Thus, we intended to generate an efficient CDKL3 inhibitor based on this chemical backbone for cell cycle arrest. As the first step, the original compound (ASC67) was synthesized, and the performance was evaluated ([50]). The addition of ASC67 could gradient-dependently diminish the phosphorylation of Rb by CDKL3 while not influencing CDK4 or CDK2 in vitro (Figure 8B). The effectiveness of this chemical was then evaluated using a variety of cancer cell lines, including estrogen-responsive (ER^+) breast cancer, for which palbociclib is administrated clinically ([51]). […] As a direct comparison, the clinically approved CDK4/6 inhibitor had IC50 values ranging from 1 to 5 μM in different cell lines (Figure 8, C–F, and Supplemental Figure 6, A–F) ([47], [52]–[55]). This information made it evident that ASC67 holds considerable promise in cancer treatment and can be used as a backbone compound for further optimization. Chemical treatments Cdk1/2 Inhibitor III was dissolved in DMSO with a concentration of 25mM as stock solution. Cells were treated at a final concentration of 1.2μM. 5μM was used for in vitro kinase assay. Palbociclib was dissolved in DMSO with a concentration of 100mM as stock solution. Cells were treated with Palbociclib at a final concentration of 0.8μM. 5μM was used for in vitro kinase assay. Thymidine was dissolved in ddH2O with a concentration of 200mM. Cells were treated with Thymidine at a final concentration of 2mM. ASC67 was dissolved in DMSO with a concentration of 300mM as stock solution. For IC50 assay, cells were treated at a concentration range from 0 to 300μM. For in vitro kinase assay, the concentration ranging from 0 to 0.5μM was used. The inhibitor C3I-22 (HZ1) was dissolved in DMSO with a concentration of 300mM as stock solution. For IC50 assay, cells were treated with a concentration range from 0 to 300μM. For in vitro kinase assay, the concentration ranging from 0 to 0.1μM was used. Organoids derived from colon cancer patients were treated with a concentration range from 0 to 5μM. Balb/cA-nude and C57BL/6J-Apcmin/+ mice were treated with a concentration of 1mg/kg (suspended in PBS) through oral gavage. Other C3I inhibitors were dissolved in DMSO with a concentration of 200mM as stock solution. In vitro protein purification GST-tagged proteins were transformed into E. coli BL21 competent cells, and then protein expression was induced by adding IPTG (Beyotime Biotechnology) at 18°C for 6 to 10 hours. The bacterial culture was centrifuged (600xg, 10 min, 4°C), and the pellets were resuspended in 20mL lysis buffer (50mM Tris-HCl, 300mM NaCl, and 10% (v/v) glycerol, 1mM [compound left out], pH 7.9) and sonicated with 50% power on a SCIENTZ JY92-IIN sonicator for 20 minutes (5 seconds per time, with an interval of 5 seconds).

Test [5] concerns HeLa. Description: cells. On the set-up: tumour cell growth suppression, dose response, 24 h. Particulars: Homo sapiens, 24 h. The method, then:
as §1

The subject of test [6] is MDA-MB-231. As to the kind of experiment: cells. Also on record: tumour cell growth suppression, dose response, 24 h. Particulars: Homo sapiens, MDA-MB-231, 24 h. As to the method:
as §1

The test system of test [7] is U2OS. As to the kind of experiment: cells. On the set-up: tumour cell growth suppression, dose response, 72 h. Particulars: Homo sapiens, 72 h. As to the method: as §1
In test [8] the test system is HeLa. As to the kind of experiment: cells. Also on record: tumour cell growth suppression, dose response, 72 h. Particulars: Homo sapiens, 72 h. The method, then: as §1
In test [9] the test system is MDA-MB-231. Description: cells. The settings on record: Homo sapiens, MDA-MB-231, 72 h. On the set-up: tumour cell growth suppression, dose response, 72 h. As to the method: as §1
Test [10] relates to MCF7. Description: cells. On the set-up: tumour cell growth suppression, dose response, 24 h. The settings on record: Homo sapiens, 24 h, parental cells. As to the method:
as §1

For test [11], the system named is T47D. Description: cells. On the set-up: tumour cell growth suppression, dose response, 24 h. Particulars: Homo sapiens, 24 h, parental cells. The method, then: as §1
The test system of test [12] is MCF7. As to the kind of experiment: cells. On the set-up: tumour cell growth suppression, dose response, 72 h. Particulars: Homo sapiens, 72 h, parental cells. The method, then: as §1
Test [13] relates to T47D. As to the kind of experiment: cells. Also on record: tumour cell growth suppression, dose response, 72 h. The settings on record: Homo sapiens, 72 h, parental cells. The method, then:
as §1

Test [14] concerns DLD-1. As to the kind of experiment: cells. Also on record: tumour cell growth suppression, dose response, 24 h. Particulars: Homo sapiens, 24 h, parental cells. As to the method:
as §1

For test [15], the system named is DLD-1. Description: cells. On the set-up: tumour cell growth suppression, dose response, 72 h. The settings on record: Homo sapiens, 72 h, parental cells. The method, then:
as §1

From publication PMC11324297, “CDKL3 is a targetable regulator of cell cycle progression in cancers” (The Journal of Clinical Investigation, 2024) come the findings set out here.

pIC50: −log10 of the molar value.

In the case of CDK4 (from UniProt P11802) CDK4 T172A, the “binding against the reference” value in test [1], in test [2] and in test [3] was “stronger” throughout.
Take `N#CCc1ccc(Nc2nccc(Nc3cc(C4CCCC4)n[nH]3)n2)cc1` [ASC67]: the negative-log IC50 (pIC50) (usually the IC50 on a negative log10 scale, so that one unit is a factor of ten) in test [4] is 5.74; in test [5], 6.02; in test [6], 5.74; in test [7] it was 6.00; in test [8], 5.81; in test [9], 6.42.
On to `CC(=O)c1c(C)c2cnc(Nc3ccc(N4CCNCC4)cn3)nc2n(C2CCCC2)c1=O` [palbociclib], for which the negative logarithm of the IC50 (pIC50) in test [4] is 5.45; in test [5], 5.37; in test [10] it was 5.54; in [6], 5.28; in [11], 5.67; in test [12] it was 5.59. In addition, in test [13], the pIC50 was 5.73.
As to `O=C(O)c1ccc(Nc2nccc(Nc3cc(C4CCCC4)n[nH]3)n2)cc1` [C3I-22-1, 4-((4-((3-cyclopentyl-1H-pyrazol-5-yl)amino)pyrimidin-2-yl)amino)benzoic acid], the pIC50 in [7] is 4.41.
With `CC(=O)c1ccc(Nc2nccc(Nc3cc(C4CCCC4)n[nH]3)n2)cc1` [C3I-22, HZ1], the negative-log IC50 (pIC50) is 5.88 in test [4] (parental cells); 6.22 in test [14]; 6.46 in test [7]; 6.38 in test [7] (parental cells); 6.83 in [15].
